Key:
BRD4 BD1 = biological target: T1, BRD4 BD1 (Homo sapiens, UniProt O60885); assay: AlphaScreen binding assay, BRD4 Bromodomain 1
T1 construct: made in house
In short: (§1)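 An AlphaScreen competition format was used with His-BRD4 BD1 or BD2 and biotin-H4 K5/8/12/16-acetyl peptide, each at matched final levels of 50 nM (BD1) or 100 nM (BD2). Incubation in HEPES/NaCl buffer with 0.1% BSA and 0.01% Triton X-100 ran ≥1 h before IC50 determination.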

BRD4 BD2 = biological target: T2, BRD4 BD2 (Homo sapiens, UniProt O60885); assay: AlphaScreen binding assay, BRD4 Bromodomain 2
T2 construct: made in house
In short: as §1

MV4-11 cells = assay: Oncology cell growth assay (3-day proliferation, CellTiter-Glo); assay type: cell-based; conditions: Homo sapiens, MV4-11, 72 h, AML cell line MV4-11, 72 hours, compounds grouped by IC50 range, read-out: MV4-11 IC50 (inhibition of proliferation, gIC50)
In short: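 Luminescence from CellTiter-Glo served as the growth read-out after MV4-11 cells (3000/well) were cultured with compound for 72 hours. Final concentrations spanned 10 to 0.0045 μM in 3-fold steps. gIC50 values were derived by four-parameter logistic fitting relative to DMSO and cell-free controls.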

SMILES | IC50 (BRD4 BD1) [µM] | IC50 (BRD4 BD2) [µM] | IC50 (MV4-11 cells) [µM]
CC(=O)N1c2ccc(-c3ccc(S(N)(=O)=O)cc3)cc2N(C(=O)OC2CCOCC2)C[C@@H]1C [Example I-1234] | 0.1 to 1 | 0.05 to 0.5 | 0.1 to 0.5
CCCS(=O)(=O)c1ccc(-c2ccc3c(c2)N(C(=O)OC2CCOCC2)C[C@H](C)N3C(C)=O)cc1 [Example I-1236] | 0.1 to 1 | 0.05 to 0.5 | 0.1 to 0.5
CC(=O)N1c2ccc(-c3ccc(S(=O)(=O)CC4CC4)cc3)cc2N(C(=O)OC2CCCCC2)C[C@@H]1C [Example I-1237] | 0.1 to 1 | 0.05 to 0.5 | 0.1 to 0.5
CC(=O)N1c2ccc(-c3ccc(S(=O)(=O)CC4CC4)cc3)cc2N(C(=O)OC2CCOCC2)C[C@@H]1C [Example I-1238] | 0.1 to 1 | 0.05 to 0.5 | > 0.5
CC(=O)N1c2ccc(-c3ccc(S(=O)(=O)CC(C)C)cc3)cc2N(C(=O)OC2CCOCC2)C[C@@H]1C [Example I-1240] | 0.1 to 1 | 0.05 to 0.5 | 0.1 to 0.5
CC(=O)N1c2ccc(-c3ccc(S(C)(=O)=O)c(F)c3)cc2N(C(=O)OC2CCOCC2)C[C@@H]1C [Example I-1242] | 1 to 10 | 0.05 to 0.5 | > 0.5
CC(=O)N1c2ccc(-c3cc(Cl)cc(S(C)(=O)=O)c3)cc2N(C(=O)OC2CCOCC2)C[C@@H]1C [Example I-1248] | 0.1 to 1 | > 0.5 | 0.1 to 0.5
CC(=O)N1c2ccc(-c3ccc(F)c(S(C)(=O)=O)c3)cc2N(C(=O)OC2CCOCC2)C[C@@H]1C [Example I-1250] | 1 to 10 | > 0.5 | > 0.5
CC(=O)N1c2ccc(-c3ccc(OCCS(C)(=O)=O)cc3)cc2N(C(=O)OC2CCOCC2)C[C@@H]1C [Example I-1252] | 0.1 to 1 | 0.05 to 0.5 | 0.1 to 0.5
CCN(CC)S(=O)(=O)c1cc(-c2ccc3c(c2)N(C(=O)OC2CCCCC2)C[C@H](C)N3C(C)=O)ccc1OC [Example I-1257] | 0.1 to 1 | 0.05 to 0.5 | 0.1 to 0.5
CCN(CC)S(=O)(=O)c1cc(-c2ccc3c(c2)N(C(=O)OC2CCOCC2)C[C@H](C)N3C(C)=O)ccc1OC [Example I-1258] | 0.1 to 1 | 0.05 to 0.5 | 0.1 to 0.5
CC(=O)N1c2ccc(-c3ccc(S(=O)(=O)n4cccn4)cc3)cc2N(C(=O)OC2CCCCC2)C[C@@H]1C [Example I-1259] | 0.1 to 1 | 0.05 to 0.5 | 0.1 to 0.5
CC(=O)N1c2ccc(-c3ccc(S(=O)(=O)n4cccn4)cc3)cc2N(C(=O)OC2CCOCC2)C[C@@H]1C [Example I-1260] | 0.1 to 1 | 0.05 to 0.5 | > 0.5
CC(=O)N1c2ccc(-c3ccc(S(=O)(=O)N(C)C)cc3)cc2N(C(=O)OC2CCOCC2)C[C@@H]1C [Example I-1264] | 0.1 to 1 | 0.05 to 0.5 | 0.1 to 0.5
CC(=O)N1c2ccc(-c3ccc(S(=O)(=O)NC(C)(C)C)cc3)cc2N(C(=O)OC2CCOCC2)C[C@@H]1C [Example I-1266] | 0.1 to 1 | 0.05 to 0.5 | 0.1 to 0.5
CC(=O)N1c2ccc(-c3ccc(N4CCCC4=O)cc3)cc2N(C(=O)OC2CCCCC2)C[C@@H]1C [Example I-1267] | 0.1 to 1 | 0.05 to 0.5 | 0.1 to 0.5
CC(=O)N1c2ccc(-c3ccc(N4CCCC4=O)cc3)cc2N(C(=O)OC2CCOCC2)C[C@@H]1C [Example I-1268] | 0.1 to 1 | 0.05 to 0.5 | 0.1 to 0.5
CCS(=O)(=O)Nc1ccc(-c2ccc3c(c2)N(C(=O)OC2CCOCC2)C[C@H](C)N3C(C)=O)cc1 [Example I-1270] | 0.1 to 1 | 0.05 to 0.5 | 0.1 to 0.5
COc1ccc(-c2ccc3c(c2)N(C(=O)OC2CCOCC2)C[C@H](C)N3C(C)=O)cc1NS(C)(=O)=O [Example I-1272] | 0.1 to 1 | 0.05 to 0.5 | 0.1 to 0.5
CC(=O)N1c2ccc(-c3cccc(NS(=O)(=O)N(C)C)c3)cc2N(C(=O)OC2CCOCC2)C[C@@H]1C [Example I-1274] | 0.1 to 1 | 0.05 to 0.5 | 0.1 to 0.5
CC(=O)N1c2ccc(-c3cnn(C(C)(C)CO)c3)cc2N(C(=O)OC(C)C)C[C@@H]1C [Example I-1275] | 0.1 to 1 | < 0.05 | 0.1 to 0.5
CC(=O)N1c2ccc(-c3cnn(CCS(C)(=O)=O)c3)cc2N(C(=O)Oc2cccnc2)C[C@@H]1C [Example I-1279] | 0.1 to 1 | 0.05 to 0.5 | 0.1 to 0.5
CC(=O)N1c2ccc(-c3cnn(CCO)c3)cc2N(C(=O)Oc2cccnc2)C[C@@H]1C [Example I-1281] | 0.1 to 1 | 0.05 to 0.5 | 0.1 to 0.5
CC(=O)N1c2ccc(-c3cnn(C(C)(C)CO)c3)cc2N(C(=O)Oc2cccnc2)C[C@@H]1C [Example I-1284] | 0.1 to 1 | 0.05 to 0.5 | 0.1 to 0.5
CC(=O)N1c2ccc(-c3ccc(N4CCCS4(=O)=O)cc3)cc2N(C(=O)Oc2cccnc2)C[C@@H]1C [Example I-1286] | 0.1 to 1 | 0.05 to 0.5 | 0.1 to 0.5
CC(=O)N1c2ccc(-c3ccc(N(C)S(C)(=O)=O)cc3)cc2N(C(=O)Oc2cccnc2)C[C@@H]1C [Example I-1292] | 0.1 to 1 | 0.05 to 0.5 | 0.1 to 0.5

More lines, now with the values ahead:

IC50 (BRD4 BD1) [µM] | IC50 (BRD4 BD2) [µM] | IC50 (MV4-11 cells) [µM] | SMILES
0.1 to 1 | 0.05 to 0.5 | 0.1 to 0.5 | CCCS(=O)(=O)c1ccc(-c2ccc3c(c2)N(C(=O)OC2CCCCC2)C[C@H](C)N3C(C)=O)cc1 [Example I-1235]
0.1 to 1 | 0.05 to 0.5 | 0.1 to 0.5 | CC(=O)N1c2ccc(-c3ccc(S(=O)(=O)CC(C)C)cc3)cc2N(C(=O)OC2CCCCC2)C[C@@H]1C [Example I-1239]
0.1 to 1 | 0.05 to 0.5 | 0.1 to 0.5 | CC(=O)N1c2ccc(-c3ccc(S(C)(=O)=O)c(F)c3)cc2N(C(=O)OC2CCCCC2)C[C@@H]1C [Example I-1241]
0.1 to 1 | 0.05 to 0.5 | 0.1 to 0.5 | CC(=O)N1c2ccc(-c3cccc(S(=O)(=O)C4CC4)c3)cc2N(C(=O)OC2CCCCC2)C[C@@H]1C [Example I-1243]
0.1 to 1 | 0.05 to 0.5 | 0.1 to 0.5 | CC(=O)N1c2ccc(-c3cccc(S(=O)(=O)C4CC4)c3)cc2N(C(=O)OC2CCOCC2)C[C@@H]1C [Example I-1244]
0.1 to 1 | 0.05 to 0.5 | 0.1 to 0.5 | CCS(=O)(=O)c1cccc(-c2ccc3c(c2)N(C(=O)OC2CCCCC2)C[C@H](C)N3C(C)=O)c1 [Example I-1245]
0.1 to 1 | 0.05 to 0.5 | 0.1 to 0.5 | CCS(=O)(=O)c1cccc(-c2ccc3c(c2)N(C(=O)OC2CCOCC2)C[C@H](C)N3C(C)=O)c1 [Example I-1246]
1 to 10 | > 0.5 | > 0.5 | CC(=O)N1c2ccc(-c3cc(Cl)cc(S(C)(=O)=O)c3)cc2N(C(=O)OC2CCCCC2)C[C@@H]1C [Example I-1247]
1 to 10 | 0.05 to 0.5 | 0.1 to 0.5 | CC(=O)N1c2ccc(-c3ccc(F)c(S(C)(=O)=O)c3)cc2N(C(=O)OC2CCCCC2)C[C@@H]1C [Example I-1249]
0.1 to 1 | 0.05 to 0.5 | 0.1 to 0.5 | CC(=O)N1c2ccc(-c3ccc(OCCS(C)(=O)=O)cc3)cc2N(C(=O)OC2CCCCC2)C[C@@H]1C [Example I-1251]
0.1 to 1 | 0.05 to 0.5 | 0.1 to 0.5 | CNS(=O)(=O)c1cccc(-c2ccc3c(c2)N(C(=O)OC2CCCCC2)C[C@H](C)N3C(C)=O)c1 [Example I-1253]
0.1 to 1 | 0.05 to 0.5 | < 0.1 | CNS(=O)(=O)c1cccc(-c2ccc3c(c2)N(C(=O)OC2CCOCC2)C[C@H](C)N3C(C)=O)c1 [Example I-1254]
0.1 to 1 | 0.05 to 0.5 | 0.1 to 0.5 | CC(=O)N1c2ccc(-c3cccc(S(=O)(=O)NCCO)c3)cc2N(C(=O)OC2CCCCC2)C[C@@H]1C [Example I-1255]
0.1 to 1 | 0.05 to 0.5 | 0.1 to 0.5 | CC(=O)N1c2ccc(-c3cccc(S(=O)(=O)NCCO)c3)cc2N(C(=O)OC2CCOCC2)C[C@@H]1C [Example I-1256]
0.1 to 1 | 0.05 to 0.5 | 0.1 to 0.5 | CNS(=O)(=O)c1ccc(-c2ccc3c(c2)N(C(=O)OC2CCCCC2)C[C@H](C)N3C(C)=O)cc1 [Example I-1261]
0.1 to 1 | 0.05 to 0.5 | 0.1 to 0.5 | CNS(=O)(=O)c1ccc(-c2ccc3c(c2)N(C(=O)OC2CCOCC2)C[C@H](C)N3C(C)=O)cc1 [Example I-1262]
0.1 to 1 | 0.05 to 0.5 | 0.1 to 0.5 | CC(=O)N1c2ccc(-c3ccc(S(=O)(=O)N(C)C)cc3)cc2N(C(=O)OC2CCCCC2)C[C@@H]1C [Example I-1263]
0.1 to 1 | 0.05 to 0.5 | 0.1 to 0.5 | CC(=O)N1c2ccc(-c3ccc(S(=O)(=O)NC(C)(C)C)cc3)cc2N(C(=O)OC2CCCCC2)C[C@@H]1C [Example I-1265]
0.1 to 1 | 0.05 to 0.5 | < 0.1 | CCS(=O)(=O)Nc1ccc(-c2ccc3c(c2)N(C(=O)OC2CCCCC2)C[C@H](C)N3C(C)=O)cc1 [Example I-1269]
0.1 to 1 | 0.05 to 0.5 | < 0.1 | COc1ccc(-c2ccc3c(c2)N(C(=O)OC2CCCCC2)C[C@H](C)N3C(C)=O)cc1NS(C)(=O)=O [Example I-1271]
0.1 to 1 | 0.05 to 0.5 | 0.1 to 0.5 | CC(=O)N1c2ccc(-c3cccc(NS(=O)(=O)N(C)C)c3)cc2N(C(=O)OC2CCCCC2)C[C@@H]1C [Example I-1273]
